Molecular target: Tyrosine-protein phosphatase non-receptor type 7 (Homo sapiens) (UniProt P35236)
Assay: redox-dependent HePTP inhibition, mechanism study, biochemical, fluorescence (AID 2068)
Conditions: recombinant HePTP, fluorescent phosphatase assay, redox-state modulation

Sequence of Tyrosine-protein phosphatase non-receptor type 7 (Homo sapiens) (P35236 whole entry, looked up): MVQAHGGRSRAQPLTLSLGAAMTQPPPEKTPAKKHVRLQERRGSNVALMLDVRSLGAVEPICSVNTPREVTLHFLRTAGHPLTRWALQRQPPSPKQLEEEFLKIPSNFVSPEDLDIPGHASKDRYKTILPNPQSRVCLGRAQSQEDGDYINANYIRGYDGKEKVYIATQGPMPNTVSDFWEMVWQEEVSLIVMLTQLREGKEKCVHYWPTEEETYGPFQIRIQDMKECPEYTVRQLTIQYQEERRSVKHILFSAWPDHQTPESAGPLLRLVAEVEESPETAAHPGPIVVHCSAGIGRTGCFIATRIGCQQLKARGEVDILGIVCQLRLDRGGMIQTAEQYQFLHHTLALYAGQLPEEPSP

Question: For `O=C(O)CSc1cc(C(=O)c2ccccc2O)cn2c(=O)c3c(-c4ccccc4)csc3nc12`, which IC50 is on record?
Answer: 1750 nM

Reference: PubChem BioAssay AID2068 (Sanford-Burnham Center for Chemical Genomics, 2009)
